Values of other authors, collected in US9737548B2, “Pharmaceutical formulations and uses thereof in the treatment of female sexual dysfunction” (EB IP LYBRIDO B.V., priority 2005, dated 2017).

Columns and labels:
[1] = short-lasting peak formulation
[2] = serum concentration

SMILES: C[C@]12CC[C@H]3[C@@H](CCC4=CC(=O)CC[C@@]43C)[C@@H]1CC[C@@H]2O [testosterone, 17-β-hydroxyandrost-4-en-3-one]
- time after administration at which peak serum level of testosterone is obtained [1]: 1 to 20 min
- time after which testosterone serum level is back to the level before administration [1]: approximately 120 minutes

SMILES: COc1cc2nc(N3CCN(C(=O)c4ccco4)CC3)nc(N)c2cc1OC [prazosin]
- Tmax [2]: 1 to 2 h
